In US20100292222A1, “CHEMICAL COMPOUNDS 751” (ASTRAZENECA AB, priority 2009, published 2010):

The molecules below were run against T1, Androgen Receptor (AR) (Homo sapiens, UniProt P10275, T878A) (assay: LNCaP Androgen Receptor Down-Regulation Cell Assay). Conditions: LNCaP prostate carcinoma cell line; 20-22 hours incubation; immunofluorescence; 50% reduction of the AR signal.
T1 construct: cell based immuno-fluorescence assay using the LNCaP prostate epithelial cell line; host or cells: LNCaP clone FGC prostate carcinoma cells
T1 sequence (P10275 1-920 T878A): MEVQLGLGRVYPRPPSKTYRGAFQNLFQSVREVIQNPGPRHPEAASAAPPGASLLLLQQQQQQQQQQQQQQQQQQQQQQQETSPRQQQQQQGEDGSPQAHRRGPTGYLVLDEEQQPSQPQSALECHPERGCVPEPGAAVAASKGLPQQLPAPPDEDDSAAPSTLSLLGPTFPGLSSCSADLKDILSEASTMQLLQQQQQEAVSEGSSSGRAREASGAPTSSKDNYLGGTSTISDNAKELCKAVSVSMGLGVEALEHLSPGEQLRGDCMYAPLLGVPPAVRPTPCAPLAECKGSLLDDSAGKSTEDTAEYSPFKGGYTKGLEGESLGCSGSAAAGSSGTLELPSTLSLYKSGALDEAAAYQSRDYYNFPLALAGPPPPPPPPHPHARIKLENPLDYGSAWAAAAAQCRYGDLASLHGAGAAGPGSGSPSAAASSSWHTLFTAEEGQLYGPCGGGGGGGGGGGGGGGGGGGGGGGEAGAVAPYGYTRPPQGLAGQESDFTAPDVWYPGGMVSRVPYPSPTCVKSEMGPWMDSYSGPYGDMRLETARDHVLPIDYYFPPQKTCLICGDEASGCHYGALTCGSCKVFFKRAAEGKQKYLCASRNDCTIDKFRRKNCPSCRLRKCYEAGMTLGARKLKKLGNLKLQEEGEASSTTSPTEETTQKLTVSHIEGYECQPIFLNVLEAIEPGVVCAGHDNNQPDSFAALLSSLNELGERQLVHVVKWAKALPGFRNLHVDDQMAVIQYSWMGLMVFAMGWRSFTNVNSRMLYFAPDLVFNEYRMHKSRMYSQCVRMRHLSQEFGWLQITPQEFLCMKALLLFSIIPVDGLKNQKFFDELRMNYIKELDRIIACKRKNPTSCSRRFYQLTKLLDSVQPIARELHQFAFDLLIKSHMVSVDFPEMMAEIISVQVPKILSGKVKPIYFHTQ
Assay type: cell-based
Method: The ability of compounds to reduce Androgen Receptor (AR) numbers was assessed in a cell based immuno-fluorescence assay using the LNCaP prostate epithelial cell line.
This immunofluorescence end point assay measures the ability of a test compound to down-regulate and reduce measured levels of the AR in the LNCaP prostate carcinoma cell line (LNCaP clone FGC (CRL-1740) obtained from the American Type Culture Collection (ATCC)).
LNCaP cells were cultured in Growth Medium (phenol red free Roswell Park Memorial Institute (RPMI) 1640 (Invitrogen Code no. 11835-063) containing 2 mM L-Glutamine (Invitrogen Code no. 25030-024) and 1% (v/v) Penicillin/Streptomycin (10000 units/ml Penicillin and 10000 μg/ml of Streptomycin utilising penicillin G (sodium salt) and streptomycin sulphate: prepared in normal saline, Invitrogen Code no. 15140122) and 10% (v/v) foetal bovine serum (FBS)) in a 5% CO2 air incubator at 37° C. Cells for assay were harvested from T175 stock flasks by washing once in PBS (phosphate buffered saline, pH 7.4) (Invitrogen Code no. 14190-094) and harvested using 5 mls of 1× Trypsin/ethylaminediaminetetraacetic acid (EDTA) (10× Trypsin-EDTA, 5.0 g/L Trypsin, 2.0 g/L of EDTA•4Na and 8.5 g/L of NaCl, without Phenol Red, Invitrogen Code no. 15400-054) diluted in PBS solution. A 5 ml volume of Growth Medium was added to each flask (as above except that 5% (v/v) charcoal stripped FBS (HyClone Code no. SH30068.03) was included instead of 10% (v/v) FBS). Cells were syringed at least twice using a sterile 18G×1.5″ (1.2×40 mm) broad gauge needle and cell density was measured using a haemocytometer. Cells were further diluted in Growth Medium plus 5% (v/v) charcoal stripped FBS and seeded at a density of 6.5×10^3 cells per well (in 90 ul) into transparent, black, tissue culture treated 96 well plates (Packard, No. 6005182).
Test data reported herein was generated using two different compounds preparation and dosing methods. In method (1) a 10 mM compound stock solution in 100% (v/v) DMSO was serially diluted in 4-fold steps in 100% (v/v) DMSO using a Thermo Scientific Matrix SerialMate. The diluted compounds were then further diluted 1 in 30 in assay media using a Thermo Scientific Matrix PlateMate and a 10 μl aliquot of this dilution was dosed to cells manually using a multi-channel pipette. In method (2) starting with a 10 mM compound stock solution, the Labcyte Echo 550 was used to generate a compound concentration response set diluted in 30 μl of assay media. The Echo 550 is a liquid handler that uses acoustic technology to perform direct microplate-to-microplate transfers of DMSO compound solutions. The system can be programmed to transfer volumes as low as […] in multiple increments between microplates and in so doing generates a serial dilution of compound which is then back-filled to normalise the DMSO is concentration across the dilution range. A 10 μl volume of diluted compound is then dosed to cells using a Thermo Scientific Matrix PlateMate.
Plates were incubated overnight at 37° C., 5% CO2. Wells were then dosed with compound prepared by one of the 2 methods above and further incubated for 20-22 hours at 37° C., 5% CO2. Plates were fixed by the addition of 20 μl of 10% (v/v) formaldehyde solution (in PBS) to each well (final formaldehyde conc.=1.67% (v/v)) and left at room temperature for 10 mins. This fixative solution was removed and cells were washed with 250 μl of PBS/0.05% (v/v) Tween 20 (PBST) using an automated plate washer. This process was then repeated twice more.
Immunostaining was performed at room temperature. Cells were permeabilised by the addition of 35 μl of PBS containing 0.5% Tween 20 and incubated for 1 hour at room temperature. Permeabilisation solution was removed and cells were washed with 250 μl of PBST using an automated plate washer. This process was then repeated twice more. […]

SMILES	IC50
O=C1CN(CCOc2ccc(C3CCN(c4ccc5nnc(C(F)(F)F)n5n4)CC3)cc2)CCN1C1CC1 [Example 6, 1-cyclopropyl-4-[2-(4-{1-[3-(trifluoromethyl)[1,2,4]-triazolo[4,3-b]pyridazin-6-yl]piperidin-4-yl}phenoxy)ethyl]piperazin-2-one]	510 nM
CC(=O)N1CCN(C[C@H](C)Oc2ccc(C3CCN(c4ccc5nnc(C(F)(F)F)n5n4)CC3)cc2)CC1 [Example 27, 6-(4-{4-[(1S)-2-(4-acetylpiperazin-1-yl)-1-methylethoxy]phenyl}piperidin-1-yl)-3-(trifluoromethyl) [1,2,4]triazolo[4,3-b]pyridazine]	880 nM
C[C@@H](O)C(=O)N1CCN(CCOc2ccc(C3CCN(c4ccc5nnc(C(F)(F)F)n5n4)CC3)cc2)CC1 [Example 24, (2R)-1-oxo-1-{4-[2-(4-{1-[3-(trifluoromethyl)[1,2,4]triazolo[4,3-b]pyridazin-6-yl]piperidin-4-yl}phenoxy)ethyl]piperazin-1-yl}propan-2-ol]	1700 nM
CN1CCN(CCCOc2ccc(C3CCN(c4ccc5nnc(C(F)(F)F)n5n4)CC3)cc2)CC1=O [Example 9, 1-methyl-4-[3-(4-{1-[3-(trifluoromethyl)[1,2,4]triazolo[4,3-b]pyridazin-6-yl]piperidin-4-yl}phenoxy)propyl]piperazin-2-one]	300 nM
CN1CCN(CCOc2ccc(C3CCN(c4ccc5nnc(C(F)(F)F)n5n4)CC3)cc2)C(=O)C1 [Example 8, 4-methyl-1-[2-(4-{1-[3-(trifluoromethyl)[1,2,4]triazolo[4,3-b]pyridazin-6-yl]piperidin-4-yl}phenoxy)ethyl]piperazin-2-one]	1000 nM
COC[C@H](CN1CCN(C(C)=O)CC1)Oc1ccc(C2CCN(c3ccc4nnc(C(F)(F)F)n4n3)CC2)cc1 [Example 28, 6-(4-{4-[(1S)-2-(4-acetylpiperazin-1-yl)-1-(methoxymethyl)ethoxy]phenyl}piperidin-1-yl)-3-(trifluoromethyl)[1,2,4]triazolo[4,3-b]pyridazine]	400 nM
CCN1CCN(CCOc2ccc(C3(O)CCN(c4ccc5nnc(C(F)(F)F)n5n4)CC3)cc2)CC1=O [Example 37, 1-ethyl-4-[2-(4-{4-hydroxy-1-[3-(trifluoromethyl)[1,2,4]triazolo[4,3-b]pyridazin-6-yl]piperidin-4-yl}phenoxy)ethyl]piperazin-2-one]	390 nM
CN1CCN(CCOc2ccc(N3CCN(c4ccc5nnc(C(F)(F)F)n5n4)CC3)cc2)CC1=O [Example 4, 1-methyl-4-[2-(4-{4-[3-(trifluoromethyl)[1,2,4]triazolo[4,3-b]pyridazin-6-yl]piperazin-1-yl}phenoxy)ethyl]piperazin-2-one]	5700 nM
CCN1CCN(CCOc2ccc(C3CCN(c4ccc5nnc(C(F)(F)F)n5n4)CC3)cc2)CC1=O [Example 18, 1-ethyl-4-[2-(4-{1-[3-(trifluoromethyl)[1,2,4]triazolo[4,3-b]pyridazin-6-yl]piperidin-4-yl}phenoxy)ethyl]piperazin-2-one]	310 nM
CN1CCN(CCOc2ccc(C3(O)CCN(c4ccc5nnc(C(F)(F)F)n5n4)CC3)cc2F)CC1=O [Example 12, 4-[2-(2-fluoro-4-{4-hydroxy-1-[3-(trifluoromethyl)[1,2,4]triazolo[4,3-b]pyridazin-6-yl]piperidin-4-yl}phenoxy)ethyl]-1-methylpiperazin-2-one]	670 nM

Now those with a lower IC50, led by results:

IC50	SMILES
84 nM	CC(=O)N1CCN([C@H](C)COc2ccc(C3(O)CCN(c4ccc5nnc(C(F)(F)F)n5n4)CC3)cc2)CC1 (single isomer, unassigned) [Example 43, 4-{4-[2-(4-acetylpiperazin-1-yl)propoxy]phenyl}-1-[3-(trifluoromethyl)[1,2,4]triazolo[4,3-b]pyridazin-6-yl]piperidin-4-ol]
160 nM	CC(=O)N1CCN(C[C@@H](C)Oc2ccc(C3CCN(c4ccc5nnc(C(F)(F)F)n5n4)CC3)cc2)CC1 [Example 26, 6-(4-{4-[(1R)-2-(4-acetylpiperazin-1-yl)-1-methylethoxy]phenyl}piperidin-1-yl)-3-(trifluoromethyl)[1,2,4]triazolo[4,3-b]pyridazine]
71 nM	CC(=O)N1CCN(CCOc2ccc(C3(O)CCN(c4ccc5nnc(C(F)(F)F)n5n4)CC3)cc2)C[C@H]1C [Example 39, 4-(4-{2-[(3R)-4-acetyl-3-methylpiperazin-1-yl]ethoxy}phenyl)-1-[3-(trifluoromethyl) [1,2,4]triazolo[4,3-b]pyridazin-6-yl]piperidin-4-ol]
260 nM	Cc1cc(OCCN2CCN(C)C(=O)C2)ccc1C1(O)CCN(c2ccc3nnc(C(F)(F)F)n3n2)CC1 [Example 31, 4-[2-(4-{4-hydroxy-1-[3-(trifluoromethyl)[1,2,4]-triazolo[4,3-b]pyridazin-6-yl]piperidin-4-yl}-3-methylphenoxy)ethyl]-1-methylpiperazin-2-one]
18 nM	CC(=O)N1CCCN([C@H](C)COc2ccc(C3(O)CCN(c4ccc5nnc(C(F)(F)F)n5n4)CC3)cc2)CC1 (single isomer, unassigned) [Example 46, 4-{4-[2-(4-acetyl-1,4-diazepan-1-yl)propoxy]phenyl}-1-[3-(trifluoromethyl)[1,2,4]triazolo[4,3-b]pyridazin-6-yl]piperidin-4-ol]
56 nM	CN1CCN(CCOc2ccc(C3CCN(c4ccc5nnc(C(F)(F)F)n5n4)CC3)cc2)CCC1=O [Example 32, 4-methyl-1-[2-(4-{1-[3-(trifluoromethyl)[1,2,4]-triazolo[4,3-b]pyridazin-6-yl]piperidin-4-yl}phenoxy)ethyl]-1,4-diazepan-5-one]
79 nM	CC(=O)N1CCN(CCOc2ccc(C3CCN(c4ccc5nnc(C(F)(F)F)n5n4)CC3)cc2)C[C@@H]1C [Example 33, 6-[4-(4-{2-[(3S)-4-acetyl-3-methylpiperazin-1-yl]ethoxy}phenyl)piperidin-1-yl]-3-(trifluoromethyl)[1,2,4]triazolo[4,3-b]pyridazine]
